Measured values from ChEMBL document CHEMBL1155569, “Synthesis and structures of regioisomeric hydnocarpin-type flavonolignans” (J Nat Prod, 2000).
Activity calls are given as the source filed them. No cut-off for these calls is given here.

Target: T1, Quinolone resistance protein NorA (Staphylococcus aureus) (UniProt P0A0J7)
T1 sequence (whole entry): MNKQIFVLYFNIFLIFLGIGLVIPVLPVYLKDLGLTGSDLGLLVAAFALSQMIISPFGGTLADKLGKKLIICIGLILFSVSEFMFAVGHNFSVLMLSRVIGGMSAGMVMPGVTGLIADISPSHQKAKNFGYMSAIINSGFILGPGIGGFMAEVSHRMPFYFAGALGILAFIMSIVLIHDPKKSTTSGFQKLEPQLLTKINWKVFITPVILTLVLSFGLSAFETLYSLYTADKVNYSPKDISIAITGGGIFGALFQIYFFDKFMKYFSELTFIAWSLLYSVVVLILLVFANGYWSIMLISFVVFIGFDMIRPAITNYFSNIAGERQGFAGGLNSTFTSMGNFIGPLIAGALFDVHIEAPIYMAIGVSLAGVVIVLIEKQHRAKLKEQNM
Test: Inhibition of Staphylococcus aureus NorA MDR efflux pump

Activity | Structure (SMILES)
Active | COc1cc([C@H]2Oc3cc(-c4cc(=O)c5c(O)cc(O)cc5o4)ccc3O[C@@H]2CO)ccc1O (racemic)
Active | COc1cc([C@H]2Oc3cc(-c4cc(=O)c5c(O)cc(O)cc5o4)cc(OC)c3O[C@@H]2CO)ccc1O (racemic)
Active | COc1cc([C@H]2Oc3ccc(-c4cc(=O)c5c(O)cc(O)cc5o4)cc3O[C@@H]2CO)ccc1O (racemic)
Active | COc1cc([C@H]2Oc3c(OC)cc(-c4cc(=O)c5c(O)cc(O)cc5o4)cc3O[C@@H]2CO)ccc1O (racemic)
